In ChEMBL document CHEMBL4038308, “Lipophosphonoxins II: Design, Synthesis, and Properties of Novel Broad Spectrum Antibacterial Agents” (J Med Chem, 2017) one finds MIC and Activity data, which are given here for 6 compounds.

The test system of experiment [1] is Escherichia coli. The experiment can be described thus: Antibacterial activity against Escherichia coli CCM 3954 after 24 hrs by microdilution method. The settings on record: CCM 3954, 24 h. Format: functional. (In general: In broth dilution the organism is exposed to a series of concentrations in liquid medium.)
For experiment [2], the system named is Pseudomonas aeruginosa. Nature of the experiment: Antibacterial activity against Pseudomonas aeruginosa CCM 3955 after 24 hrs by microdilution method. The conditions noted are these: CCM 3955, 24 h. The class given is functional.
The subject of a further experiment is Enterococcus faecalis. The experiment can be described thus: Antibacterial activity against Enterococcus faecalis CCM 4224 after 24 hrs by microdilution method. The settings on record: CCM 4224, 24 h. The class given is functional.
Experiment [3] relates to Staphylococcus aureus. Nature of the experiment: Antibacterial activity against Staphylococcus aureus CCM 4223 after 24 hrs by microdilution method. Format: functional. The settings on record: CCM 4223, 24 h.
The subject of another experiment is Bacillus subtilis. Nature of the experiment: Antibacterial activity against Bacillus subtilis after 24 hrs by microdilution method. The class given is functional.
Another experiment has as its system Streptococcus agalactiae. Nature of the experiment: Antibacterial activity against Streptococcus agalactiae after 24 hrs by microdilution method. The class given is functional.
The test system of experiment [4] is Escherichia coli. The experiment can be described thus: Antibacterial activity against Escherichia coli 16702 after 24 hrs by microdilution method. The class given is functional. The conditions noted are these: Escherichia coli, 16702, 24 h.
Experiment [5] relates to Pseudomonas aeruginosa. The experiment can be described thus: Antibacterial activity against Pseudomonas aeruginosa 16575 after 24 hrs by microdilution method. Format: functional. The settings on record: Pseudomonas aeruginosa, 16575, 24 h.
The test system of experiment [6] is Staphylococcus aureus. Nature of the experiment: Antibacterial activity against methicillin-resistant Staphylococcus aureus 4591 clinical isolates after 24 hrs by microdilution method. Format: functional. The conditions noted are these: Staphylococcus aureus, 4591, 24 h.
In experiment [7] the test system is Staphylococcus haemolyticus. The experiment can be described thus: Antibacterial activity against fluoroquinolne-resistant Staphylococcus haemolyticus 16568 after 24 hrs by microdilution method. Format: functional. The settings on record: Staphylococcus haemolyticus, 16568, 24 h.
The test system of experiment [8] is Staphylococcus epidermidis. The experiment can be described thus: Antibacterial activity against Staphylococcus epidermidis 8700/B after 24 hrs by microdilution method. Format: functional.
The test system of the next experiment is Enterococcus faecium. Nature of the experiment: Antibacterial activity against vancomycin-resistant Enterococcus faecium 419/ana clinical isolates after 24 hrs by microdilution method. The class given is functional.
The next experiment relates to Salmonella enteritidis. The experiment can be described thus: Antibacterial activity against Salmonella enteritidis S2-25 after 24 hrs by microdilution method. Format: functional, Salmonella enterica subsp. enterica serovar Enteritidis. The settings on record: Salmonella enterica, S2-25, 24 h.
In a further experiment the test system is Acinetobacter baumannii. Nature of the experiment: Antibacterial activity against Acinetobacter baumannii A3-08 after 24 hrs by microdilution method. The settings on record: A3-08, 24 h. Format: functional.
Experiment [9] concerns Stenotrophomonas maltophilia. Nature of the experiment: Antibacterial activity against Stenotrophomonas maltophilia S2-23 after 24 hrs by microdilution method. The settings on record: S2-23, 24 h. The class given is functional.
For the next experiment, the system named is Burkholderia multivorans. Nature of the experiment: Antibacterial activity against Burkholderia multivorans after 24 hrs by microdilution method. Format: functional.
Experiment [10] can be described thus: Pore forming activity across black lipid bilayer membranes assessed as induction of variation in membrane current by measuring pore conductance at 5 ug/ml.

SMILES strings stand for the structures. In brackets after ≈: the same amount, converted by molar mass.

Broadly, the MIC is the lowest concentration found to suppress growth. A high value points to a need for much substance. As for `CCCCCCCCCCCCCOP(=O)(CCN(CCCNC(=N)N)CCCNC(=N)N)OC[C@H]1O[C@@H](n2ccc(=O)[nH]c2=O)[C@H](O)[C@@H]1O` (stereo partly specified), the minimal inhibitory concentration (MIC) with Escherichia coli [1] turned out to be 12.5 µg/mL (≈ 17.1 µM); in the experiment on Pseudomonas aeruginosa [2], 3.13 µg/mL (≈ 4.28 µM); against Enterococcus faecalis, 25 µg/mL (≈ 34.2 µM); against Staphylococcus aureus [3] it was 6.25 µg/mL (≈ 8.54 µM); in the experiment on Bacillus subtilis it was 1.56 µg/mL (≈ 2.13 µM); in the experiment on Streptococcus agalactiae, 3.13 µg/mL (≈ 4.28 µM). In addition, the MIC was 12.5 µg/mL (≈ 17.1 µM) with Escherichia coli [4]; 25 µg/mL (≈ 34.2 µM) against Pseudomonas aeruginosa [5]; 12.5 µg/mL (≈ 17.1 µM) with Staphylococcus aureus [6]; 3.13 µg/mL (≈ 4.28 µM) in experiment [7]; 6.25 µg/mL (≈ 8.54 µM) in [8]; 50 µg/mL (≈ 68.3 µM) against Enterococcus faecium. The minimal inhibitory concentration (MIC) against Salmonella enteritidis worked out at 12.5 µg/mL (≈ 17.1 µM); in the experiment on Acinetobacter baumannii, 25 µg/mL (≈ 34.2 µM); in experiment [9], 25 µg/mL (≈ 34.2 µM); against Burkholderia multivorans, 50 µg/mL (≈ 68.3 µM).
For `CCCCCCCCCC(=O)N[C@@H](Cc1c[nH]c2ccccc12)C(=O)N[C@@H](CC(N)=O)C(=O)N[C@@H](CC(=O)O)C(=O)N[C@@H]1C(=O)NCC(=O)N[C@@H](CCCN)C(=O)N[C@@H](CC(=O)O)C(=O)N[C@H](C)C(=O)N[C@@H](CC(=O)O)C(=O)NCC(=O)N[C@H](CO)C(=O)N[C@@H]([C@H](C)CC(=O)O)C(=O)N[C@@H](CC(=O)c2ccccc2N)C(=O)O[C@@H]1C`, the Activity in experiment [10] turned out to be 500 pS.
For the compound `CCCCCCCCCCCCCCCOP(=O)(CCN(CCNC(=N)N)CCNC(=N)N)OC[C@H]1O[C@@H](n2ccc(=O)[nH]c2=O)[C@H](O)[C@@H]1O` (stereo partly specified), the minimal inhibitory concentration (MIC) was 3.13 µg/mL (≈ 4.28 µM) in the experiment with Escherichia coli [1]; 6.25 µg/mL (≈ 8.54 µM) against Pseudomonas aeruginosa [2]; 25 µg/mL (≈ 34.2 µM) against Enterococcus faecalis; 6.25 µg/mL (≈ 8.54 µM) in the experiment on Staphylococcus aureus [3]; 3.13 µg/mL (≈ 4.28 µM) in the experiment on Bacillus subtilis; 3.13 µg/mL (≈ 4.28 µM) against Streptococcus agalactiae. Also, the minimal inhibitory concentration (MIC) came to 3.13 µg/mL (≈ 4.28 µM) in the experiment on Escherichia coli [4]; 6.25 µg/mL (≈ 8.54 µM) in the experiment on Pseudomonas aeruginosa [5]; 6.25 µg/mL (≈ 8.54 µM) in the experiment with Staphylococcus aureus [6]; 6.25 µg/mL (≈ 8.54 µM) in experiment [7]; 3.13 µg/mL (≈ 4.28 µM) in experiment [8]; 50 µg/mL (≈ 68.3 µM) against Enterococcus faecium. Moreover, the MIC with Salmonella enteritidis came to 3.13 µg/mL (≈ 4.28 µM); with Acinetobacter baumannii it was 6.25 µg/mL (≈ 8.54 µM); in [9] it was 3.13 µg/mL (≈ 4.28 µM); in the experiment with Burkholderia multivorans, 12.5 µg/mL (≈ 17.1 µM).
`CCCCCCCCCCCCCCCCOP(=O)(CCN(CCCN)CCCN)OC[C@H]1O[C@@H](n2ccc(=O)[nH]c2=O)[C@H](O)[C@@H]1O` (stereo partly specified): the minimum inhibitory concentration (MIC) turned out to be 3.13 µg/mL (≈ 4.54 µM) against Escherichia coli [1]; 6.25 µg/mL (≈ 9.06 µM) in the experiment with Pseudomonas aeruginosa [2]; 50 µg/mL (≈ 72.5 µM) against Enterococcus faecalis; 12.5 µg/mL (≈ 18.1 µM) in the experiment with Staphylococcus aureus [3]; 0.78 µg/mL (≈ 1.13 µM) against Bacillus subtilis; 3.13 µg/mL (≈ 4.54 µM) in the experiment with Streptococcus agalactiae. For the same compound, the MIC in the experiment with Escherichia coli [4] came to 3.13 µg/mL (≈ 4.54 µM); with Pseudomonas aeruginosa [5] it was 3.13 µg/mL (≈ 4.54 µM); with Staphylococcus aureus [6] it was 25 µg/mL (≈ 36.2 µM); in experiment [7], 3.13 µg/mL (≈ 4.54 µM); in experiment [8] it was 3.13 µg/mL (≈ 4.54 µM); against Enterococcus faecium, 25 µg/mL (≈ 36.2 µM). Further, the minimum inhibitory concentration (MIC) in the experiment with Salmonella enteritidis came out at 3.13 µg/mL (≈ 4.54 µM); in the experiment with Acinetobacter baumannii, 3.13 µg/mL (≈ 4.54 µM); in experiment [9] it was 3.13 µg/mL (≈ 4.54 µM); in the experiment on Burkholderia multivorans, 50 µg/mL (≈ 72.5 µM).
Consider `CCCCCCCCCCCCCCCOP(=O)(CCN1C[C@@H](O)[C@@H](N)C1)OC[C@H]1O[C@@H](n2ccc(=O)[nH]c2=O)[C@H](O)[C@@H]1O` (stereo partly specified), for which the MIC against Escherichia coli [1] was determined as 6.25 µg/mL (≈ 9.66 µM); against Pseudomonas aeruginosa [2] it was 25 µg/mL (≈ 38.7 µM); against Enterococcus faecalis it was 12.5 µg/mL (≈ 19.3 µM); against Staphylococcus aureus [3], 12.5 µg/mL (≈ 19.3 µM); with Bacillus subtilis it was 6.25 µg/mL (≈ 9.66 µM); in the experiment with Streptococcus agalactiae it was 3.13 µg/mL (≈ 4.84 µM). In addition, the minimum inhibitory concentration (MIC) against Escherichia coli [4] turned out to be 6.25 µg/mL (≈ 9.66 µM); against Pseudomonas aeruginosa [5] it was 12.5 µg/mL (≈ 19.3 µM); with Staphylococcus aureus [6], 25 µg/mL (≈ 38.7 µM); in experiment [7], 12.5 µg/mL (≈ 19.3 µM); in [8] it was 6.25 µg/mL (≈ 9.66 µM); with Enterococcus faecium, 50 µg/mL (≈ 77.3 µM). Further, the MIC in the experiment on Salmonella enteritidis was 6.25 µg/mL (≈ 9.66 µM); against Acinetobacter baumannii it was 6.25 µg/mL (≈ 9.66 µM); in [9], 6.25 µg/mL (≈ 9.66 µM); with Burkholderia multivorans it was over 200 µg/mL.
Consider `CCCCCCCCCCCCCCOP(=O)(CCN(CCN)CCN)OC[C@H]1O[C@@H](n2ccc(=O)[nH]c2=O)[C@H](O)[C@@H]1O` (stereo partly specified), for which the minimum inhibitory concentration (MIC) came to 12.5 µg/mL (≈ 19.7 µM) with Escherichia coli [1]; 3.13 µg/mL (≈ 4.94 µM) with Pseudomonas aeruginosa [2]; 100 µg/mL (≈ 158 µM) against Enterococcus faecalis; 25 µg/mL (≈ 39.4 µM) against Staphylococcus aureus [3]; 6.25 µg/mL (≈ 9.86 µM) with Bacillus subtilis; 6.25 µg/mL (≈ 9.86 µM) in the experiment with Streptococcus agalactiae. For the same compound, the minimum inhibitory concentration (MIC) with Escherichia coli [4] stood at 6.25 µg/mL (≈ 9.86 µM); against Pseudomonas aeruginosa [5], 6.25 µg/mL (≈ 9.86 µM); against Staphylococcus aureus [6] it was 12.5 µg/mL (≈ 19.7 µM); in experiment [7], 3.13 µg/mL (≈ 4.94 µM); in experiment [8] it was 3.13 µg/mL (≈ 4.94 µM); against Enterococcus faecium it was 100 µg/mL (≈ 158 µM). The minimal inhibitory concentration (MIC) against Salmonella enteritidis was 12.5 µg/mL (≈ 19.7 µM); in the experiment with Acinetobacter baumannii, 25 µg/mL (≈ 39.4 µM); in experiment [9] it was 6.25 µg/mL (≈ 9.86 µM); against Burkholderia multivorans, 12.5 µg/mL (≈ 19.7 µM).
